# Marks after values point to notes of the source that are not given here.
# Legend:
# Burns = assay: Burns; parameters: species or system human; settings: in vivo
# Procedure: A total of 23 patients with cutaneous burns were treated with L-Glu-L-Trp either im or intranasally. Fourteen patients in a control group were treated using conventional methods.
# Staphylococcus aureus = assay: Survival after acute peritonitis with LD100 dose of antibiotic-resistant Staphylococcus aureus, prophylactic treatment; settings: for Percentage Survivors: ip prophylactic
# [1] = system: peripheral blood lymphocytes; assay: Chernobyl Protocol F: L-Glu-L-Trp at 3 years post-radiation exposure; assay type: in vivo, human
# Procedure: An increased incidence of cancer is one sequelae known to occur in subjects exposed to radiation, presumably because of decreased immune surveillance and elimination of tumor cells. […] An attempt to normalize immune parameters was attempted in 70 of the latter patients exposed 3 years previously to 0.2-0.5 Gy of radiation at Chernobyl. […] The subjects were treated with L-Glu-L-Trp in an attempt to alleviate the immune defects. The treatment course consisted of daily doses of 100 μg L-Glu-L-Trp administered im for 3-5 days. Sixty three subjects, similarly exposed to radiation in Chernobyl were used as untreated controls.
# [2] = Post-term women (Protocol D); parameters: species or system human; settings: in vivo
# Procedure: Nineteen patients (19 women) post-term were treated with L-Glu-L-Trp and 48 women received conventional post-term treatment as a control group.
# Frostbite = assay: Frostbite; parameters: species or system human; settings: in vivo
# Procedure: Seventeen patients with frostbite of the extremities were treated with L-Glu-L-Trp either im or intranasally. Eleven patients constituted a control group.
# Sarcoma 180 tumor = assay: Sarcoma 180 bilateral tumor size; assay type: in vivo, Swiss-Webster mice; settings: for Mean Tumor Weight Left / Mean Tumor Weight Right: mean leg weight treated - normal control
# Procedure: Anti-tumor activity of L-Glu-L-Trp was evaluated using the murine Sarcoma 180 tumor (ATCC CCL-8 CCRF S-180 II) injected at 2×10^6 cells/0.1 mL im into each rear flank of Swiss-Webster mice. Groups consisted of 10 animals. L-Glu-L-Trp was administered in a single 0.1 mL dose of either 10 μg/kg, 75 μg/kg, 250 μg/kg or 1000 μg/kg. Tumor size was evaluated by surgically removing and weighing the affected limbs, and comparing the weight with the weight of normal control (non-tumor) limbs. The first prophylactic drug regimen (PDR-1) consisted of 5 consecutive daily ip injections commencing on day -5 and ending of day -1. The second prophylactic drug regimen (PDR-2) consisted of 5 consecutive daily im injections to the left rear flank (tumor site) beginning on day -5 and ending on day -1. Sarcoma 180 cells were injected im on day 0. Saline 0.1 mL served as the negative control.
# influenza = assay: Influenza prophylaxis: incidence of acute respiratory diseases and influenza illness; assay type: in vivo, human
# Procedure: A group of 452 persons were treated with daily dosages of 100 μg of L-Glu-L-Trp administered im on each of 5-10 consecutive days. A control group consisted of 250 untreated persons. The incidence of diagnosed respiratory diseases and influenza were recorded for both groups over the next four months.
substance,measurement,setting,value
L-Glu-L-Trp,Clinical outcome,Burns,accelerated rate of wound healing
same,Survival by time of single prophylactic ip injection,Staphylococcus aureus; 24 hours before challenge,"more surviving animals than if pretreatment was at 1, 48, or 72 hrs"
same,Percentage Survivors,"Staphylococcus aureus; 24 hours, Glu-Trp dose 0.01 μg/kg (alone or + Ampicillin)",31.5%
same,Percentage Survivors,"Staphylococcus aureus; 24 hours, Glu-Trp dose 0.1 μg/kg (alone or + Ampicillin)",33.3%
same,Percentage Survivors,"Staphylococcus aureus; 24 hours, Glu-Trp dose 1 μg/kg (alone or + Ampicillin)",50.0* %
same,Percentage Survivors,"Staphylococcus aureus; 24 hours, Glu-Trp dose 10 μg/kg (alone or + Ampicillin)",83.3* %
same,Percentage Survivors,"Staphylococcus aureus; 24 hours, Glu-Trp dose 100 μg/kg (alone or + Ampicillin)",88.9* %
same,Percentage Survivors,"Staphylococcus aureus; 24 hours, dose cell empty (line after 100 μg/kg)",83.3* %
same,Percentage Survivors,"Staphylococcus aureus; 48 hours, Glu-Trp dose 0.01 μg/kg (alone or + Ampicillin)",3.7%
same,Percentage Survivors,"Staphylococcus aureus; 48 hours, Glu-Trp dose 0.1 μg/kg (alone or + Ampicillin)",0%
same,Percentage Survivors,"Staphylococcus aureus; 48 hours, Glu-Trp dose 1 μg/kg (alone or + Ampicillin)",27.8* %
same,Percentage Survivors,"Staphylococcus aureus; 48 hours, Glu-Trp dose 10 μg/kg (alone or + Ampicillin)",50.0* %
same,Percentage Survivors,"Staphylococcus aureus; 48 hours, Glu-Trp dose 100 μg/kg (alone or + Ampicillin)",61.1* %
same,Percentage Survivors,"Staphylococcus aureus; 48 hours, dose cell empty (line after 100 μg/kg)",72.2* %
same,Percentage Survivors,"Staphylococcus aureus; 72 hours, Glu-Trp dose 0.01 μg/kg (alone or + Ampicillin)",0%
same,Percentage Survivors,"Staphylococcus aureus; 72 hours, Glu-Trp dose 0.1 μg/kg (alone or + Ampicillin)",0%
same,Percentage Survivors,"Staphylococcus aureus; 72 hours, Glu-Trp dose 1 μg/kg (alone or + Ampicillin)",5.6%
same,Percentage Survivors,"Staphylococcus aureus; 72 hours, Glu-Trp dose 10 μg/kg (alone or + Ampicillin)",33.3* %
same,Percentage Survivors,"Staphylococcus aureus; 72 hours, Glu-Trp dose 100 μg/kg (alone or + Ampicillin)",50.0* %
same,Percentage Survivors,"Staphylococcus aureus; 72 hours, dose cell empty (line after 100 μg/kg)",55.6* %
same,Survival,Staphylococcus aureus; ip or im routes,increased the percentage of animals surviving challenge with a lethal number of Staphylococcus aureus
same,"Survival, multiple treatment regimen at 72, 48 and 24 hrs",Staphylococcus aureus; single agent or combined therapy,significantly higher (p<0.05) survival than a single treatment dose
same,"B-Ig+, %",[1]; After L-Glu-L-Trp,11.0 ± 0.3%
same,"B-Ig+, abs",[1]; After L-Glu-L-Trp,0.23 ± 0.04 10^9/L
same,"B-IgA+, %",[1]; After L-Glu-L-Trp,1.9 ± 0.3%
same,"B-IgA+, abs",[1]; After L-Glu-L-Trp,0.04 ± 0.002 10^9/L
same,"B-IgG+, %",[1]; After L-Glu-L-Trp,4.8 ± 0.5%
same,"B-IgG+, abs",[1]; After L-Glu-L-Trp,0.09 ± 0.007 10^9/L
same,"B-IgM+, %",[1]; After L-Glu-L-Trp,4.1 ± 0.6 %
same,"B-IgM+, abs",[1]; After L-Glu-L-Trp,0.12 ± 0.003** 10^9/L
same,"CD2-DR+, %",[1]; After L-Glu-L-Trp,32 ± 3 %
same,"CD2-DR+, abs",[1]; After L-Glu-L-Trp,0.66 ± 0.10** 10^9/L
same,"CD3, %",[1]; After L-Glu-L-Trp,59.2 ± 2.1 %
same,"CD3, abs",[1]; After L-Glu-L-Trp,1.21 ± 0.15 10^9/L
same,"CD4, %",[1]; After L-Glu-L-Trp,36.2 ± 1.7%
same,"CD4, abs",[1]; After L-Glu-L-Trp,0.74 ± 0.08 10^9/L
same,"CD8, %",[1]; After L-Glu-L-Trp,23.2 ± 2.1 %
same,"CD8, abs",[1]; After L-Glu-L-Trp,0.48 ± 0.07** 10^9/L
same,IgA,[1]; After L-Glu-L-Trp,1.2 ± 0.4 g/L
same,IgG,[1]; After L-Glu-L-Trp,10.9 ± 1.3 g/L
same,IgM,[1]; After L-Glu-L-Trp,1.06 ± 0.06 g/L
same,"LMI, %",[1]; After L-Glu-L-Trp,75 ± 6 %
same,"Leukocytes, abs",[1]; After L-Glu-L-Trp,5.6 ± 0.4 10^9/L
same,"Lymphocytes, abs",[1]; After L-Glu-L-Trp,2.1 ± 0.3 10^9/L
same,T4/T8,[1]; After L-Glu-L-Trp,1.58 ± 0.04
same,Cases with restoration of CD2+ counts,[1]; in vivo,85%
same,Clinical outcome,[1]; in vivo,disappearance of symptoms associated with the asthenic syndrome
same,Clinical outcome,[2],resulting in a normal delivery
same,Clinical outcome,Frostbite,Rapid healing and restoration of tissue integrity
same,Percent of Control Tumor Weight Left,"Sarcoma 180 tumor; PDR-1 ip, 10 μg/kg",120%
same,Mean Tumor Weight Left,"Sarcoma 180 tumor; PDR-1 ip, 10 μg/kg",3.0
same,Mean Tumor Weight Right,"Sarcoma 180 tumor; PDR-1 ip, 10 μg/kg",2.9
same,Percent of Control Tumor Weight Left,"Sarcoma 180 tumor; PDR-1 ip, 75 μg/kg",120%
same,Mean Tumor Weight Left,"Sarcoma 180 tumor; PDR-1 ip, 75 μg/kg",3.0
same,Percent of Control Tumor Weight Right,"Sarcoma 180 tumor; PDR-1 ip, 75 μg/kg",130%
same,Mean Tumor Weight Right,"Sarcoma 180 tumor; PDR-1 ip, 75 μg/kg",3.0
same,Percent of Control Tumor Weight Left,"Sarcoma 180 tumor; PDR-1 ip, 250 μg/kg",92%
same,Mean Tumor Weight Left,"Sarcoma 180 tumor; PDR-1 ip, 250 μg/kg",2.3
same,Percent of Control Tumor Weight Right,"Sarcoma 180 tumor; PDR-1 ip, 250 μg/kg",83%
same,Mean Tumor Weight Right,"Sarcoma 180 tumor; PDR-1 ip, 250 μg/kg",1.9
same,Percent of Control Tumor Weight Left,"Sarcoma 180 tumor; PDR-1 ip, 1000 μg/kg",52%
same,Mean Tumor Weight Left,"Sarcoma 180 tumor; PDR-1 ip, 1000 μg/kg",1.3
same,Percent of Control Tumor Weight Right,"Sarcoma 180 tumor; PDR-1 ip, 1000 μg/kg",43%
same,Mean Tumor Weight Right,"Sarcoma 180 tumor; PDR-1 ip, 1000 μg/kg",1.0
same,Percent of Control Tumor Weight Left,"Sarcoma 180 tumor; PDR-2 im, 10 μg/kg",96%
same,Mean Tumor Weight Left,"Sarcoma 180 tumor; PDR-2 im, 10 μg/kg",2.4
same,Mean Tumor Weight Right,"Sarcoma 180 tumor; PDR-2 im, 10 μg/kg",2.6
same,Percent of Control Tumor Weight Left,"Sarcoma 180 tumor; PDR-2 im, 75 μg/kg",96%
same,Mean Tumor Weight Left,"Sarcoma 180 tumor; PDR-2 im, 75 μg/kg",2.4
same,Percent of Control Tumor Weight Right,"Sarcoma 180 tumor; PDR-2 im, 75 μg/kg",132%
same,Mean Tumor Weight Right,"Sarcoma 180 tumor; PDR-2 im, 75 μg/kg",3.3
same,Percent of Control Tumor Weight Left,"Sarcoma 180 tumor; PDR-2 im, 250 μg/kg",72%
same,Mean Tumor Weight Left,"Sarcoma 180 tumor; PDR-2 im, 250 μg/kg",1.8
same,Percent of Control Tumor Weight Right,"Sarcoma 180 tumor; PDR-2 im, 250 μg/kg",48%
same,Mean Tumor Weight Right,"Sarcoma 180 tumor; PDR-2 im, 250 μg/kg",1.1
same,Percent of Control Tumor Weight Left,"Sarcoma 180 tumor; PDR-2 im, 1000 μg/kg",48%
same,Mean Tumor Weight Left,"Sarcoma 180 tumor; PDR-2 im, 1000 μg/kg",1.2
same,Percent of Control Tumor Weight Right,"Sarcoma 180 tumor; PDR-2 im, 1000 μg/kg",57%
same,Mean Tumor Weight Right,"Sarcoma 180 tumor; PDR-2 im, 1000 μg/kg",1.3
same,Tumor growth,"Sarcoma 180 tumor; prophylactic ip or im, 250 μg/kg and 1000 μg/kg",inhibited subsequent im tumor growth
same,Average term of hospitalization,influenza; L-Glu-L-Trp group,6.2 days
same,"Incidence of lingering and complicated cases for in-patients, %",influenza; L-Glu-L-Trp group,9.8%
same,"Need for hospitalization, %",influenza; L-Glu-L-Trp group,30.6%
same,Number of cases of temporary disablement per 100 persons/month,influenza; L-Glu-L-Trp group,4.1
same,Number of days of temporary disablement per 100 persons/month,influenza; L-Glu-L-Trp group,26.5
same,"Overall incidence of lingering and complicated cases, %",influenza; L-Glu-L-Trp group,3.9%
same,Pneumonia rate/100 persons/month,influenza; L-Glu-L-Trp group,0.20
same,Sickness rate per 100 persons/month,influenza; L-Glu-L-Trp group,9.8
same,"Average term of hospitalization, Ratio Control/TX",influenza; in vivo,1.4
same,"Cases of temporary disablement, Ratio Control/TX",influenza; in vivo,1.7
same,"Days of temporary disablement, Ratio Control/TX",influenza; in vivo,2.2
same,"Incidence of lingering and complicated cases for in-patients, Ratio Control/TX",influenza; in vivo,2.7
same,"Need for hospitalization, Ratio Control/TX",influenza; in vivo,1.7
same,"Overall incidence of lingering and complicated cases, Ratio Control/TX",influenza; in vivo,3.5
same,"Pneumonia rate, Ratio Control/TX",influenza; in vivo,2.5
same,"Sickness rate, Ratio Control/TX",influenza; in vivo,3.1

# — patent US6368788B1 (priority 1987, dated 2002)
